Results reported in patent US20240409566A1, “DELIVERY OF THERAPEUTIC ALKALOID COMPOUNDS” (priority 2022, published 2024).

Tests used:
[1] = target: 5-HT transporter (SERT) (Homo sapiens (Human), UniProt P31645); settings: cited from earlier work
[2] = Plasma stability assay, human plasma; type: in vitro ADME
Procedure: (§1) Compound stability in rat and human plasma was measured by incubating compound with rat or human plasma at 37° C. in a microwell plate for sequential time points, monitoring pro-drug disappearance and metabolite appearance (mesembranol or 6-epi-mesembranol). A 2 mM stock solution of test compounds were prepared by dissolving appropriate amount of compounds in DMSO. The 2 mM stock was further diluted 200-folds in rat or human plasma to attain a final concentration of 10 μM respectively (0.5% DMSO). 50 μL aliquots of positive controls and test compounds spiked into rat or human plasma (n=2) were added to a pre-warmed plate (37° C.) and shaken at 50 rpm. At each respective time point, the reaction was stopped by adding 500 μL of acetonitrile containing internal standards (100 nM aprozolam, 200 nM caffeine, 100 nM tolbutamide). All samples were vortexed for 10 minutes, followed by centrifugation at 3,220 g for 30 minutes to precipitate proteins. 100 μL of the supernatant is transferred to a new plate. The supernatant will be diluted with ultrapure water according to the LC-MS signal response and peak shape. The concentrations of test compounds and positive control were quantified in the test samples using LC-MS/MS. Results reported as % of prodrug compound remaining at time point, and % of metabolite (mesembranol or 6-epi-mesembranol,) accumulated at time point.

[3] = Plasma stability assay, rat plasma; type: in vitro ADME
Procedure: as §1

SMILES | Prodrug (%) ([2]; human, 0 min, 10 µM) | Prodrug (%) ([2]; human, 10 min, 10 µM) | Prodrug (%) ([2]; human, 30 min, 10 µM) | Prodrug (%) ([2]; human, 60 min, 10 µM) | Prodrug (%) ([2]; human, 120 min, 10 µM) | Prodrug (%) ([2]; human, 240 min, 10 µM) | Prodrug (%) ([3]; rat, 0 min, 10 µM) | Prodrug (%) ([3]; rat, 10 min, 10 µM) | Prodrug (%) ([3]; rat, 30 min, 10 µM) | Prodrug (%) ([3]; rat, 60 min, 10 µM) | Prodrug (%) ([3]; rat, 120 min, 10 µM) | Prodrug (%) ([3]; rat, 240 min, 10 µM) | also measured
COc1ccc(C23C=CC(O)CC2N(C)CC3)cc1OC (centres unmarked) [Mesembrenol] | – | – | – | – | – | – | – | – | – | – | – | – | nH, 5-HT transporter (SERT) ([1]; Hill coefficient of concentration response curves): 1.1; Ki ([1]; concentration response curves, binding): 62 nM
COc1ccc([C@@]23CC[C@@H](OC(=O)c4ccccc4)C[C@@H]2N(C)CC3)cc1OC [Compound 204, (3aS,6R,7aS)-3a-(3,4-dimethoxyphenyl)-1-methyloctahydro-1H-indol-6-yl benzoate] | – | – | – | – | – | – | – | – | – | – | – | – | Prodrug (%) ([2]; human plasma, 37° C., 10 μM, 0 min, % prodrug remaining): 100.00%; Prodrug (%) ([2]; human plasma, 37° C., 10 μM, 10 min, % prodrug remaining): 97.40%; Prodrug (%) ([2]; human plasma, 37° C., 10 μM, 30 min, % prodrug remaining): 94.26%; Prodrug (%) ([2]; human plasma, 37° C., 10 μM, 60 min, % prodrug remaining): 92.22%; Prodrug (%) ([2]; human plasma, 37° C., 10 μM, 120 min, % prodrug remaining): 93.59%; Prodrug (%) ([2]; human plasma, 37° C., 10 μM, 240 min, % prodrug remaining): 91.87%; Prodrug (%) ([3]; rat plasma, 37° C., 10 μM, 0 min, % prodrug remaining): 100.0%; Prodrug (%) ([3]; rat plasma, 37° C., 10 μM, 10 min, % prodrug remaining): 38.7%; Prodrug (%) ([3]; rat plasma, 37° C., 10 μM, 30 min, % prodrug remaining): 5.9%; Prodrug (%) ([3]; rat plasma, 37° C., 10 μM, 60 min, % prodrug remaining): 0.6%; Prodrug (%) ([3]; rat plasma, 37° C., 10 μM, 120 min, % prodrug remaining): 0.1%; Prodrug (%) ([3]; rat plasma, 37° C., 10 μM, 240 min, % prodrug remaining): 0.0%
CCOC(=O)O[C@@H]1CC[C@@]2(c3ccc(OC)c(OC)c3)CCN(C)[C@H]2C1 [Compound 209, (3aS,6R,7aS)-3a-(3,4-dimethoxyphenyl)-1-methyloctahydro-1H-indol-6-yl ethyl carbonate] | 100.0% | 96.0% | 91.8% | 87.6% | 84.1% | 72.5% | 100.0% | 11.5% | 0.0% | 0.0% | 0.0% | 0.0% | –
COc1ccc([C@@]23CC[C@H](OC(=O)N(C)C)C[C@@H]2N(C)CC3)cc1OC [Compound 101, (3aS,6S,7aS)-3a-(3,4-dimethoxyphenyl)-1-methyloctahydro-1H-indol-6-yl dimethylcarbamate] | 100.00% | >99.0% | >99.0% | >99.0% | >99.0% | >99.0% | 100.0% | 88.7% | 95.0% | 98.2% | 99.4% | 92.2% | –
